Experimental data as given in ChEMBL document CHEMBL1201862, “PubChem BioAssay data set” (2004).
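Method: 48-hour compound exposure of cells in 96-well plates, five concentrations, linear interpolation of endpoints. Here, GI50 denotes the concentration required for 50% inhibition of growth.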 The source made the active and inactive calls. Rule as the data show it: active = GI50 up to about 1.1 µM and inactive = higher.

Columns and labels:
Assay in all cases: NCI tumour cell line growth inhibition, 48 h
[1] = system: BT-549
[2] = system: DLD-1
[3] = system: DMS-114
[4] = system: DMS-273
[5] = system: HOP-18
[6] = system: LXFL 529
[7] = system: M19-MEL
[8] = system: RXF 631
[9] = system: XF498

C/C(=N\NC(=[Se])N(C)C)c1ccccn1
GI50 [1]: 7.31 µM (inactive) | GI50 [2]: < 0.01 µM (active) | GI50 [3]: < 0.01 µM (active) | GI50 [4]: 0.316 µM (active) | GI50 [5]: 2.1 µM (inactive) | GI50 [6]: < 0.01 µM (active) | GI50 [7]: 0.339 µM (active) | GI50 [8]: < 0.01 µM (active) | GI50 [9]: 0.198 µM (active)

COC(=O)C(C#CCCCCC#CC(NC(=O)OCc1ccccc1)(C(=O)OC)C(F)(F)F)(NC(=O)OCc1ccccc1)C(F)(F)F (stereo unspecified)
GI50 [2]: > 100 µM (inactive) | GI50 [3]: 28.1 µM (inactive) | GI50 [5]: > 100 µM (inactive) | GI50 [6]: > 100 µM (inactive) | GI50 [7]: > 100 µM (inactive) | GI50 [8]: > 100 µM (inactive)

CC(=O)[C@@]1(O)CC[C@H]2[C@@H]3C[C@H](C)C4=CC(=O)C=C[C@]4(C)[C@@]3(F)[C@@H](O)C[C@@]21C [FLUOROMETHOLONE]
GI50 [1]: > 100 µM (inactive) | GI50 [2]: > 100 µM (inactive) | GI50 [3]: > 100 µM (inactive) | GI50 [4]: > 100 µM (inactive) | GI50 [6]: > 100 µM (inactive) | GI50 [7]: > 100 µM (inactive) | GI50 [8]: > 100 µM (inactive) | GI50 [9]: > 53.5 µM (inactive)

Nc1nc(CC2(O)CCCCC2)cc(-c2ccccc2)n1
GI50 [2]: 22.1 µM (inactive) | GI50 [3]: 23 µM (inactive) | GI50 [4]: > 44.9 µM (inactive) | GI50 [5]: 35.5 µM (inactive) | GI50 [6]: > 66.7 µM (inactive) | GI50 [7]: 28.1 µM (inactive) | GI50 [8]: 34.4 µM (inactive)

CC(=O)Oc1c(C)n(CCCl)ccc1=O
GI50 [2]: > 100 µM (inactive) | GI50 [3]: > 100 µM (inactive) | GI50 [4]: > 100 µM (inactive) | GI50 [5]: > 100 µM (inactive) | GI50 [6]: > 100 µM (inactive) | GI50 [7]: > 100 µM (inactive) | GI50 [8]: 59.4 µM (inactive) | GI50 [9]: > 100 µM (inactive)

FC1OC2OC1C(OCc1ccccc1)C(OCc1ccccc1)C2OCc1ccccc1 (stereo unspecified)
GI50 [2]: 37.9 µM (inactive) | GI50 [3]: 29.5 µM (inactive) | GI50 [4]: > 100 µM (inactive) | GI50 [5]: 24.3 µM (inactive) | GI50 [6]: 34 µM (inactive) | GI50 [7]: 29.8 µM (inactive) | GI50 [8]: 71.1 µM (inactive) | GI50 [9]: 23.6 µM (inactive)

CC#C[C@@]1(O)CCCCC1O (stereo partly specified)
GI50 [3]: > 100 µM (inactive) | GI50 [4]: > 100 µM (inactive) | GI50 [5]: > 100 µM (inactive) | GI50 [7]: > 100 µM (inactive) | GI50 [8]: > 100 µM (inactive) | GI50 [9]: > 100 µM (inactive)

Cc1cccc(C(C)(C)C)c1NC(=O)CC1Sc2ccccc2NC1=O (stereo unspecified)
GI50 [2]: 57.4 µM (inactive) | GI50 [3]: 24.8 µM (inactive) | GI50 [4]: 32.9 µM (inactive) | GI50 [5]: 57.9 µM (inactive) | GI50 [6]: 52.6 µM (inactive) | GI50 [7]: 66.8 µM (inactive) | GI50 [8]: 36.7 µM (inactive)

COc1cccc2c1[C@H]1CO[C@H]3C4C[C@H](C(=O)O)C([C@@H](C2)N13)N4C (stereo partly specified)
GI50 [1]: 0.116 µM (active) | GI50 [2]: 2.84 µM (inactive) | GI50 [3]: 2.22 µM (inactive) | GI50 [4]: 3.6 µM (inactive) | GI50 [5]: 6.12 µM (inactive) | GI50 [6]: 2.27 µM (inactive) | GI50 [7]: 3.64 µM (inactive) | GI50 [8]: > 10 µM (inactive) | GI50 [9]: 2.08 µM (inactive)

O=C1COc2cc3c(cc2N1)SCCC(=O)N3
GI50 [2]: > 100 µM (inactive) | GI50 [3]: > 100 µM (inactive) | GI50 [4]: > 100 µM (inactive) | GI50 [5]: > 100 µM (inactive) | GI50 [6]: > 100 µM (inactive) | GI50 [7]: > 100 µM (inactive) | GI50 [8]: > 100 µM (inactive) | GI50 [9]: > 100 µM (inactive)
